Data taken from US9394282B2, “Pyrazole carboxamides as Janus kinase inhibitors” (Merck Sharp & Dohme Corp., priority 2011, dated 2016).

target: JAK2 (Homo sapiens (Human), UniProt O60674); assay: Jak biochemical HTRF assay, JAK2; conditions: recombinant purified GST-tagged catalytic domain; HTRF format; [ATP] 8.5 μM
Source text: (§1) Jak Biochemical HTRF Assay Protocol
(§2) Subsequent reagent additions employed an Agilent Bravo.

JAK2, sequence (O60674 849-1124): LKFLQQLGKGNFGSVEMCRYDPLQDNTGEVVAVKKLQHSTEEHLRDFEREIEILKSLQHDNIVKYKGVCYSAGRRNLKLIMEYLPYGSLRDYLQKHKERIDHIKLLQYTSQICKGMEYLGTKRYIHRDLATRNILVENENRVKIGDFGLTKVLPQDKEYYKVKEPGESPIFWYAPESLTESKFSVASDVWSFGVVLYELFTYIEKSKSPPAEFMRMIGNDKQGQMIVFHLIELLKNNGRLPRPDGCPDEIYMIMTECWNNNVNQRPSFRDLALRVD

Compared with N#C[C@@H]1CN(C(=O)OCc2ccccc2)CC[C@@H]1n1cc(C(N)=O)c(Nc2ccc(F)cc2)n1 (racemic) [Example 5-52, benzyl (3R,4S and 3S,4R)-4-{4-carbamoyl-3-[(4-fluorophenyl)amino]-1H-pyrazol-1-yl}-3-cyanopiperidine-1-carboxylate], C#CCCOC(=O)N1CC[C@H](n2cc(C(N)=O)c(Nc3ccc(F)cc3)n2)[C@H](C#N)C1 (racemic) [Example 5-40, but-3-yn-1-yl (3R,4S and 3S,4R)-4-{4-carbamoyl-3-[(4-fluorophenyl)amino]-1H-pyrazol-1-yl}-3-cyanopiperidine-1-carboxylate] is lower in IC50: over 1500 nM for the first, 1390 nM for the second. The second is the more potent here.

Going from N#C[C@@H]1CCN(C(=O)OCCF)CC1n1cc(C(N)=O)c(Nc2ccc(F)cc2)n1 (mixture of isomers) [Example 5-79, 2-fluoroethyl (3S,4R and 3R,4S)-3-{4-carbamoyl-3-[(4-fluorophenyl)amino]-1H-pyrazol-1-yl}-4-cyanopiperidine-1-carboxylate] to C#CCCOC(=O)N1CC[C@@H](n2cc(C(N)=O)c(Nc3ccc(F)cc3)n2)[C@H](C#N)C1 (racemic) [Example 5-34, but-3-yn-1-yl (3R,4R and 3S,4S)-4-{4-carbamoyl-3-[(4-fluorophenyl)amino]-1H-pyrazol-1-yl}-3-cyanopiperidine-1-carboxylate], the IC50 rises from 56 nM to 154 nM (2.8-fold). The first is the more potent here.

Compared with N#C[C@@H]1CS(=O)(=O)CC1n1cc(C(N)=O)c(Nc2ccc(F)cc2)n1 (mixture of isomers) [Example 8-6, 1-((3S,4R and 3R,4S)-4-cyano-1,1-dioxidotetrahydrothiophen-3-yl)-3-((4-fluorophenyl)amino)-1H-pyrazole-4-carboxamide], CC(C)(C#N)COC(=O)N1CC[C@@H](C#N)C(n2cc(C(N)=O)c(Nc3ccc(F)cc3)n2)C1 (mixture of isomers) [Example 5-69, 2-Cyano-2-methylpropyl (3S,4R and 3R,4S)-3-{4-carbamoyl-3-[(4-fluorophenyl)amino]-1H-pyrazol-1-yl}-4-cyanopiperidine-1-carboxylate] is 1.7-fold higher in IC50: 24 nM for the first, 41 nM for the second.

Work on N#C[C@@H]1CCOC[C@H]1n1cc(C(N)=O)c(Nc2ccc(C(F)F)nc2)n1 (single isomer, unassigned) [Example 9-33, 1-[(3S,4R or 3R,4S)-4-cyanotetrahydro-2H-pyran-3-yl]-3-{[6-(difluoromethyl)pyridin-3-yl]amino}-1H-pyrazole-4-carboxamide] yielded an IC50 of 3 nM.

same assay, conditions: recombinant purified GST-tagged catalytic domain; HTRF format; [ATP] […]

In the case of N#C[C@@H]1CS(=O)(=O)C[C@H]1n1cc(C(N)=O)c(Nc2ccc(F)cc2)n1 (single isomer, unassigned) [Example 12-2, 1-((3S,4R or 3R,4S)-4-Cyano-1,1-dioxidotetrahydrothiophen-3-yl)-3-((4-fluorophenyl)amino)-1H-pyrazole-4-carboxamide], the IC50 is reported as 16 nM.

target: JAK1 (Homo sapiens (Human), UniProt P23458); assay: Jak biochemical HTRF assay, JAK1; conditions: recombinant purified GST-tagged catalytic domain; HTRF format; [ATP] 31.8 μM
Source text: as §1, §2

JAK1, sequence (P23458 875-1153): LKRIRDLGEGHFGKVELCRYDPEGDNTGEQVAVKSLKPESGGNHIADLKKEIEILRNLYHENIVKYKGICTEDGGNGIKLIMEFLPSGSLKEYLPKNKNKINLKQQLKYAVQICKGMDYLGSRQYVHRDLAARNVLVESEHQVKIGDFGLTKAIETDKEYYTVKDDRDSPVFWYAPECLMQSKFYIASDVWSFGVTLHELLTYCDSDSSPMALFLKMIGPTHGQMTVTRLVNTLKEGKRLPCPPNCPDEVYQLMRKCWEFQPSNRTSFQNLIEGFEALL

First: N#C[C@@H]1CN(C(=O)OC2CCOCC2)CC[C@H]1n1cc(C(N)=O)c(Nc2ccc(F)cc2)n1 (racemic) [Example 5-13, tetrahydro-2H-pyran-4-yl (3R,4R and 3S,4S)-4-{4-carbamoyl-3-[(4-fluorophenyl)amino]-1H-pyrazol-1-yl}-3-cyanopiperidine-1-carboxylate]
Second: N#C[C@@H]1CN(C(=O)OC2CCOC2)CC[C@H]1n1cc(C(N)=O)c(Nc2ccc(F)cc2)n1 (mixture of isomers) [Example 5-25, tetrahydrofuran-3-yl (3R,4R and 3S,4S)-4-{4-carbamoyl-3-[(4-fluorophenyl)amino]-1H-pyrazol-1-yl}-3-cyanopiperidine-1-carboxylate]
The IC50 of the first is 1.7-fold higher: 20 nM for the first, 12 nM for the second. The second is the more potent here.

For N#C[C@@H]1CN(C(=O)OC2CCOC2)CC[C@@H]1n1cc(C(N)=O)c(Nc2ccc(F)cc2)n1 (mixture of isomers) [Example 5-51, tetrahydrofuran-3-yl (3R,4S and 3S,4R)-4-{4-carbamoyl-3-[(4-fluorophenyl)amino]-1H-pyrazol-1-yl}-3-cyanopiperidine-1-carboxylate], the IC50 was 212 nM.
